These results are taken from patent publication US20240025906A1 (NEURON23, INC., priority 2022, published 2024).

For test [1], the system named is JAK1/TYK2 pSTAT5 (Tyr694/699) in THP-1 cell line. As to the kind of experiment: IFNa-stimulated JAK1/TYK2 pSTAT5 (Tyr694/699) inhibition cellular assay, AlphaLISA. The settings on record: Homo sapiens; THP-1 cells, IFNa-stimulated, AlphaLISA (Assay B); read-out: Cellular_THP1_IFNa-pSTATS_TYK2. Type of test: cell-based. The method, boiled down: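 An eight-point 6-fold titration of compound (0.04–10000 nM final) is given to THP-1 cells for 1 h before 30 min of IFNa exposure. Phospho-STAT5 is read by AlphaLISA at 615 nm. IC50 values are derived by logistic regression with bottom set to 0 and Hill slope set to −1.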

For another test, the target named is T1, TYK2 JH2 (Homo sapiens, UniProt P29597).
T1 construct: purchased DiscoverX (KINOMEscan KdELECT service); host or cells: E. coli BL21-derived (T7 phage display) or HEK-293
T1 sequence (P29597 589-875 limits assumed): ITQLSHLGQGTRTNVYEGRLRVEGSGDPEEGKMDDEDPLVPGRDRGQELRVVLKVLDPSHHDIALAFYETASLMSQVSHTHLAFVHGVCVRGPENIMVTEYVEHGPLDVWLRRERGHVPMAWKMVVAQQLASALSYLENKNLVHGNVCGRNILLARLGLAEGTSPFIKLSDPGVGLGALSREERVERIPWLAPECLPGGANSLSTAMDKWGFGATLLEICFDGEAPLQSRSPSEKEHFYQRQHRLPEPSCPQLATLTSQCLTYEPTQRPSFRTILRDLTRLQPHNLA
Put plainly: TYK2 JH2 binding assay (KINOMEscan KdELECT competitive binding). The settings on record: TYK2 JH2 domain, KINOMEscan KdELECT (Assay A); read-out: Biochemical TYK2_DiscoverX_JH2_BND_Kd. In short, it runs like this:
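The assay measures displacement of DNA- or phage-tagged TYK2 pseudokinase domain from an affinity resin; compound binding lowers the amount captured, read by qPCR. Incubation lasts 1 h at room temperature.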

On to `CNc1ncc(C#Cc2ccc(-n3cccn3)cc2)c2cc(NC(=O)C3CC3)ncc12` [Example 806, N-(5-((4-(1H-pyrazol-1-yl)phenyl)ethynyl)-8-(methylamino)-2,7-naphthyridin-3-yl)cyclopropanecarboxamide], for which the IC50 in test [1] was at most 500 nM. In addition, the Kd on TYK2 JH2 was at most 100 nM.

`CNc1ncc(C#Cc2ccc3nc4n(c3c2)CCCC4)c2cc(NC(=O)C3CC3)ncc12` [Example 807, N-(8-(methylamino)-5-((1,2,3,4-tetrahydrobenzo[4,5]imidazo[1,2-a]pyridin-8-yl)ethynyl)-2,7-naphthyridin-3-yl)cyclopropanecarboxamide]: the IC50 in test [1] was at most 500 nM. On TYK2 JH2, the Kd was at most 100 nM.

`CNc1ncc(C#Cc2ccc3nc4n(c3c2)CCC=C4)c2cc(NC(=O)C3CC3)ncc12` [Example 808, N-(5-((1,2-dihydrobenzo[4,5]imidazo[1,2-a]pyridin-8-yl)ethynyl)-8-(methylamino)-2,7-naphthyridin-3-yl)cyclopropanecarboxamide]: the IC50 in test [1] was at most 500 nM. The Kd on TYK2 JH2 was at most 100 nM.

With `CNc1ncc(C#Cc2ccc3nc4n(c3c2)CCC(F)=C4)c2cc(NC(=O)C3CC3)ncc12` [Example 809, N-(5-((3-fluoro-1,2-dihydrobenzo[4,5]imidazo[1,2-a]pyridin-8-yl)ethynyl)-8-(methylamino)-2,7-naphthyridin-3-yl)cyclopropanecarboxamide], in test [1], the IC50 was at most 500 nM. Besides, the Kd on TYK2 JH2 was at most 100 nM.

In the case of `CCc1nc2ccc(C#Cc3cnc(NC)c4cnc(NC(=O)C5CC5)cc34)cc2n1C` [Example 811, N-(5-((2-ethyl-1-methyl-1H-benzo[d]imidazol-6-yl)ethynyl)-8-(methylamino)-2,7-naphthyridin-3-yl)cyclopropanecarboxamide], the IC50 in test [1] is at most 500 nM. For the same molecule, the Kd at TYK2 JH2 was at most 100 nM.

In the case of `[2H]C1([2H])Oc2ccc(C#Cc3cnc(NC)c4cnc(NC(=O)C5CC5)cc34)cc2O1` [Example 812, N-(5-((benzo[d][1,3]dioxol-5-yl-2,2-d2)ethynyl)-8-(methylamino)-2,7-naphthyridin-3-yl)cyclopropanecarboxamide], in test [1], the IC50 is at most 500 nM. Besides, the Kd at TYK2 JH2 is at most 100 nM.

In the case of `CNc1ncc(C#Cc2ccc3oc(C)cc3c2)c2cc(NC(=O)C3CC3)ncc12` [Example 813, N-(8-(methylamino)-5-((2-methylbenzofuran-5-yl)ethynyl)-2,7-naphthyridin-3-yl)cyclopropanecarboxamide], in test [1], the IC50 is at most 500 nM. At TYK2 JH2, the Kd is at most 100 nM.

In the case of `CNc1ncc(C#Cc2ccc(CN3C4CCC3COC4)cc2)c2cc(NC(=O)C3CC3)ncc12` [Example 815, N-(5-((4-(3-oxa-8-aza-bicyclo[3.2.1]octan-8-ylmethyl)phenyl)ethynyl)-8-(methylamino)-2,7-naphthyridin-3-yl)cyclopropanecarboxamide], the IC50 in test [1] is at most 500 nM. Further, the Kd on TYK2 JH2 was at most 100 nM.

For `CNc1ncc(C#Cc2ccc(CN3CC(OC)C3)cc2)c2cc(NC(=O)C3CC3)ncc12` [Example 816, N-(5-((4-((3-methoxyazetidin-1-yl)methyl)phenyl)ethynyl)-8-(methylamino)-2,7-naphthyridin-3-yl)cyclopropanecarboxamide], in test [1], the IC50 was at most 500 nM. Besides, the Kd at TYK2 JH2 is at most 100 nM.

With `[2H]C([2H])([2H])n1nnc2ccc(C#Cc3cnc(NC)c4cnc(NC(=O)C5CC5)cc34)cc21` [Example 817, N-(5-((1-(methyl-d3)-1H-benzo[d][1,2,3]triazol-6-yl)ethynyl)-8-(methylamino)-2,7-naphthyridin-3-yl)cyclopropanecarboxamide], the IC50 in test [1] was at most 500 nM. Also, the Kd on TYK2 JH2 was at most 100 nM.

Consider `[2H]C([2H])([2H])Nc1ncc(C#Cc2ccc3nc(C(F)F)n(C)c3c2)c2cc(NC(=O)C3CC3)ncc12` [Example 818, N-(5-((2-(difluoromethyl)-1-methyl-1H-benzo[d]imidazol-6-yl)ethynyl)-8-((methyl-d3)amino)-2,7-naphthyridin-3-yl)cyclopropanecarboxamide], for which, in test [1], the IC50 was at most 500 nM. The Kd at TYK2 JH2 is at most 100 nM.

Take `[2H]C([2H])([2H])Nc1ncc(C#Cc2ccc3nc(C(F)F)n(C)c3c2)c2cc(NC(=O)[C@H]3C[C@H]3C)ncc12` [Example 819, (1S,2R)—N-(5-((2-(difluoromethyl)-1-methyl-1H-benzo[d]imidazol-6-yl)ethynyl)-8-((methyl-d3)amino)-2,7-naphthyridin-3-yl)-2-methylcyclopropane-1-carboxamide]: in test [1], the IC50 was at most 500 nM. The Kd at TYK2 JH2 was at most 100 nM.

Consider `CNc1ncc(C#Cc2ccc(CN3CCOCC3)cc2)c2cc(NC(=O)C3CC3)ncc12` [Example 820, N-(8-(methylamino)-5-((4-(morpholinomethyl)phenyl)ethynyl)-2,7-naphthyridin-3-yl)cyclopropanecarboxamide], for which the IC50 in test [1] is at most 500 nM. In addition, the Kd at TYK2 JH2 was at most 100 nM.

Turning to `CNc1ncc(C#Cc2ccc(CN3CCOCC3)cc2)c2cc(NC(=O)[C@H]3C[C@H]3C)ncc12` [Example 821, (1S,2R)-2-methyl-N-(8-(methylamino)-5-((4-(morpholinomethyl)phenyl)ethynyl)-2,7-naphthyridin-3-yl)cyclopropane-1-carboxamide], the IC50 in test [1] was at most 500 nM. At TYK2 JH2, the Kd is at most 100 nM.

On to `CNc1ncc(Br)c2c1cnc1[nH]ccc12` [Example 824, 9-bromo-N-methyl-3H-pyrrolo[2,3-c][2,7]naphthyridin-6-amine], for which, in test [1], the IC50 was above 500 nM. For the same molecule, the Kd on TYK2 JH2 was 100 to 1000 nM.

Turning to `CNc1ncc(-c2nc3ccccc3o2)c2c1cnc1[nH]ccc12` [Example 825, 9-(benzo[d]oxazol-2-yl)-N-methyl-3H-pyrrolo[2,3-c][2,7]naphthyridin-6-amine], in test [1], the IC50 was above 500 nM. At TYK2 JH2, the Kd was at most 100 nM.

Turning to `CNc1ncc(CCc2cc(OC)cc(-c3ncnn3C)c2)c2cc(NC(=O)C3CC3)ncc12` [Example 826, N-(5-(3-methoxy-5-(1-methyl-1H-1,2,4-triazol-5-yl)phenethyl)-8-(methylamino)-2,7-naphthyridin-3-yl)cyclopropanecarboxamide], the IC50 in test [1] is above 500 nM. Moreover, the Kd at TYK2 JH2 is at most 100 nM.

In the case of `CNc1ncc(-c2nc(Cc3ncn(C)n3)co2)c2cc(NC(=O)C3CC3)ncc12` [Example 827, N-(5-(4-((1-methyl-1H-1,2,4-triazol-3-yl)methyl)oxazol-2-yl)-8-(methylamino)-2,7-naphthyridin-3-yl)cyclopropanecarboxamide], the IC50 in test [1] was above 500 nM. The Kd at TYK2 JH2 is at most 100 nM.

For `CNc1ncc(-c2nc(Cc3ncnn3C)co2)c2cc(NC(=O)C3CC3)ncc12` [Example 828, N-(5-(4-((1-methyl-1H-1,2,4-triazol-5-yl)methyl)oxazol-2-yl)-8-(methylamino)-2,7-naphthyridin-3-yl)cyclopropanecarboxamide], the IC50 in test [1] is above 500 nM. Moreover, the Kd at TYK2 JH2 was at most 100 nM.

Regarding `CNc1ncc(-c2nc(-c3nc[nH]n3)co2)c2cc(NC(=O)C3CC3)ncc12` [Example 829, N-(5-(4-(1H-1,2,4-triazol-3-yl)oxazol-2-yl)-8-(methylamino)-2,7-naphthyridin-3-yl)cyclopropanecarboxamide], the IC50 in test [1] is at most 500 nM. Further, the Kd on TYK2 JH2 was at most 100 nM.

Consider `CNc1ncc(-c2nc(-c3ncn(C)n3)co2)c2cc(NC(=O)C3CC3)ncc12` [Example 830, N-(5-(4-(1-methyl-1H-1,2,4-triazol-3-yl)oxazol-2-yl)-8-(methylamino)-2,7-naphthyridin-3-yl)cyclopropanecarboxamide], for which the IC50 in test [1] was at most 500 nM. For the same molecule, on TYK2 JH2, the Kd is at most 100 nM.

As to `CNc1ncc(-c2nc(-c3ncnn3C)co2)c2cc(NC(=O)C3CC3)ncc12` [Example 831, N-(5-(4-(1-methyl-1H-1,2,4-triazol-5-yl)oxazol-2-yl)-8-(methylamino)-2,7-naphthyridin-3-yl)cyclopropanecarboxamide], in test [1], the IC50 is above 500 nM. Besides, on TYK2 JH2, the Kd is at most 100 nM.

Regarding `CNc1ncc(C2=CCCC(c3nc[nH]n3)C2)c2cc(NC(=O)C3CC3)ncc12` (stereo not shown) [Example 832, N-(5-(5-(1H-1,2,4-triazol-3-yl)cyclohex-1-en-1-yl)-8-(methylamino)-2,7-naphthyridin-3-yl)cyclopropanecarboxamide], the IC50 in test [1] was above 500 nM. On TYK2 JH2, the Kd is at most 100 nM.

As to `CNc1ncc(C2=CCC(c3nc[nH]n3)C2)c2cc(NC(=O)C3CC3)ncc12` (stereo not shown) [Example 833, N-(5-(4-(1H-1,2,4-triazol-3-yl)cyclopent-1-en-1-yl)-8-(methylamino)-2,7-naphthyridin-3-yl)cyclopropanecarboxamide], in test [1], the IC50 was above 500 nM. The Kd on TYK2 JH2 is at most 100 nM.

For the molecule `CNc1ncc(C2=CCC(c3ncn(C)n3)C2)c2cc(NC(=O)C3CC3)ncc12` (stereo not shown) [Example 834, N-(5-(4-(1-methyl-1H-1,2,4-triazol-3-yl)cyclopent-1-en-1-yl)-8-(methylamino)-2,7-naphthyridin-3-yl)cyclopropanecarboxamide], the IC50 in test [1] was above 500 nM. Besides, the Kd at TYK2 JH2 was at most 100 nM.

On to `CNc1ncc(C2=CCC(c3ncnn3C)C2)c2cc(NC(=O)C3CC3)ncc12` (stereo not shown) [Example 835, N-(5-(4-(1-methyl-1H-1,2,4-triazol-5-yl)cyclopent-1-en-1-yl)-8-(methylamino)-2,7-naphthyridin-3-yl)cyclopropanecarboxamide], for which the IC50 in test [1] is above 500 nM. In addition, the Kd at TYK2 JH2 was at most 100 nM.
